Assay results as given in article PMC6350196 (Drug Metabolism Letters, 2018).

Assay: QSRR estimation of CHIn+Fbt and CHIbt from LC retention times
Type: physicochemical
Details: predicted (QSRR, equation 13); parent-drug label = average for that drug

With `CC(C)c1c(C(=O)Nc2ccccc2)c(-c2ccccc2)c(-c2ccc(F)cc2)n1CC[C@@H](O)C[C@@H](O)CC(=O)O` [atorvastatin] the “CHIbt, aromatic oxidation (w/o HB)” value was -16.4 and the “CHIbt, aromatic oxidation with HB” value was -2.9.
